Reference: ChEMBL document CHEMBL3507680, “University of Dundee, Gates Library screen for HepG2 cell viability”

Assay: Human HepG2 cell viability assay in 384 well format
Format: toxicity, cell-based
Set-up: dose 125 nL, time 70.5 hour; concentration not given beside the values
Conditions: HepG2 cells, read-out: Inhibition

SMILES	cytotoxicity at 70.5 h
Cc1ccc2[nH]c3c(c2c1)CN(C(=O)CN(C)CC1OCCO1)CC3	-1.1%
Cc1ccc2c(c1)c(Sc1ccccc1)c(CC(=O)O)n2C	1.6%
COC(=O)COn1c(SCC(=O)OC)nc2ccccc2c1=O	-6.15%
COC(=O)[C@@H](NC(=O)Nc1ccc(C(C)=O)cc1)C(C)C	13.3%
Cn1c2ccccc2c2ncn(CCCN3CCOCC3)c(=O)c21	12.2%
COc1cccc(NC(=O)C2CC(=O)n3cnnc3S2)c1 (stereo unspecified)	2.31%
CCN(CC)C(=O)CSc1nnc(CCNC(=O)OC(C)(C)C)o1	-11.3%
CC(C)[C@H](NC(=O)N1CCC(Cc2ccccc2)CC1)C(=O)O	-8.02%
CN1CCC(N(C)C(=O)Nc2ccc(Cl)cc2)CC1	-2.16%
COC(=O)COn1c(OC)nc2ccccc2c1=O	-11.7%
O=C1Nc2ccccc2/C1=C1\CCCCN1	-10.3%
CSCC[C@H](NC(=O)N1CCC(Cc2ccccc2)CC1)C(=O)O	-13.4%
CCNCCC(Cc1ccccc1)c1ccco1 (stereo unspecified)	-8.72%
CC1=C(C#N)C(=O)N(C)C(=O)/C1=C\C1=Cc2ccccc2OC1	8.21%
COCCCN(Cc1ccccn1)S(=O)(=O)c1ccc(OC)cc1	-14.1%
Cn1nnc2c(sc3nc(N4CCOCC4)c4c(c32)CCC4)c1=O	-16%
CC[C@H](C)[C@H](NC(=O)c1ccc(-n2cnnn2)cc1)C(=O)OC	10.1%
CSCC[C@@H](CO)NC(=O)c1ccc2nc(NS(C)(=O)=O)sc2c1	-1%
Cc1nc(-c2cnn(C)c2)nc2c1CN(C(=O)c1ccc[nH]1)CC2	-6.12%
CS(=O)(=O)N1C[C@H]2CCC[C@@]2(COCC2CCOCC2)C1	-4.48%
CCc1ccc2c(C3CN(C(C)=O)C3)ncn2c1	-3.55%
CC(C)N1CCc2ncn(C)c2C1C(=O)NCCN1CCCC1 (stereo unspecified)	-8.41%

SMILES	cytotoxicity at 70.5 h
O=C(c1ncccn1)N1C[C@@H]2CN(CC3CC3)CCO[C@@H]2C1	-13.4%
CS(=O)(=O)N1CCc2ccc(=O)n(CC3CCOCC3)c2CC1	-7.42%
Cc1ccc2c(c1)C1(CCNCC1)CC2OCC1CC1 (stereo unspecified)	-1.43%
COCCC(=O)N1Cc2[nH]nc(COc3cccnc3)c2C1	-13.5%
CN(C)C(=O)CN1C[C@H]2CCN(C(=O)c3ccccc3)CC[C@H]2S1(=O)=O	-10.6%
CC(C)n1cnc(C2CN(C)c3ccc(C(=O)NC4CCCC4)cc32)n1 (stereo unspecified)	-5.54%
CN(Cc1ccccc1)CC1CC2(CO1)CN(c1nncs1)C2 (stereo unspecified)	-8.78%
FC1(F)CCNCC12CCN(c1ccccn1)C2 (stereo unspecified)	9.9%
Fc1cnc(N2CCCn3c(nnc3Cn3cccn3)C2)nc1	12.7%
CC(=O)NCC(=O)NC1CCc2c(ccc(=O)n2CC2CC2)C1 (stereo unspecified)	-1.98%
CC1c2ncc(COCC3CCOCC3)n2CCN1S(C)(=O)=O (stereo unspecified)	-1.95%
Cn1c2c(ccc1=O)CC(NC(=O)Cc1ccsc1)CC2 (stereo unspecified)	-2.49%
O=S(=O)(C1CC1)N1CCc2ncnc(-c3ccsc3)c2CC1	-0.114%
O=C(CC1CC1)NC1CCc2c(ccc(=O)n2CC2CC2)C1 (stereo unspecified)	0.842%
FC1(F)CCNCC12CCN(c1ncccn1)C2 (stereo unspecified)	-4.34%
Cn1cc(CN2C[C@@H]3COC[C@]3(C(=O)N3CCCO3)C2)cn1	-1.04%
CCOCc1cncc2c1CCN(S(=O)(=O)c1cccc(C)c1)C2	-4.1%
O=S(=O)(C1CC1)N1CCc2ncnc(-c3ccc(F)cc3)c2CC1	0.906%
CCN1CC[C@]2(CN(C(=O)C3CCOCC3)C[C@H]2c2ccccc2)C1=O	0.473%
c1cc(CN2CCO[C@@H]3CNC[C@@H]32)co1	3.81%
CNC(=O)N1CCN(C(=O)N(C)C)CC2(CC(=O)N(C)C2)C1 (stereo unspecified)	-20%
COCC(=O)N1CC[C@H]2N(C)CC[C@@]2(C(=O)Nc2ccccc2)CC1	-20%

SMILES	cytotoxicity at 70.5 h
O=C(c1cccnc1)N1CCN(CC2CC2)c2ncccc2C1	0.755%
COCC1COCCC12CCN(C(=O)COc1ccccc1)CC2 (stereo unspecified)	-14.3%
Cc1noc([C@@H]2CC[C@@H]3[C@@H](CCN3S(C)(=O)=O)O2)n1	-16.7%
CCOCc1cnc2n1CCN(C(=O)C1=CCCC1)C2C (stereo unspecified)	-2.23%
CCS(=O)(=O)N1CC[C@H]2O[C@H](c3nc(C)no3)CC[C@H]21	-14.9%
CCc1ccc(C(=O)N2CC(C(=O)NC(C)C)C3(CCOCC3)C2)cc1 (stereo unspecified)	-20.6%
CC(C)CCN1C[C@H]2CCN(C(=O)NC3CCCC3)CC[C@H]2S1(=O)=O	-23.9%
COc1ncccc1C(=O)N1CC[C@H]2C[C@@H](c3ccncn3)O[C@@H]2C1	-18%
Cc1nc(N2CCCC2)nc2c1CCN(C(=O)C1CCCCC1)CC2	-0.729%
CCC(C)[C@H](N)c1nnc(SCC(=O)Nc2ccc(Br)cc2)o1 (stereo partly specified)	-13.2%
CSCC[C@H](N)c1nnc(SCC(=O)Nc2ccc(Br)cc2)o1	-18.7%
N[C@@H](Cc1ccccc1)c1nnc(S(=O)(=O)Cc2ccc(Cl)cc2)o1	12.7%
CC(C)N1CCC2(CC1)C(=O)N(c1cccnc1)c1ccc(F)cc12	-0.653%
CN(C)CCCNCCC(c1ccccc1)C1CCOC(C)(C)C1 (stereo unspecified)	-3.41%
CCN(CC)c1ccc2ccc(C(=O)N3CCCCO3)cn12	3.7%
Cn1ccc(C(=O)N2C[C@@H]3CN(CC4CC4)CCO[C@@H]3C2)n1	11.6%
Cc1cccc(COC[C@@]23CCC[C@@H]2CN(S(=O)(=O)N(C)C)C3)n1	-4.49%
CS(=O)(=O)N1C[C@@H]2COC[C@]2(CN2CCOCC2)C1	-8.04%
CCN1C[C@@H]2CN(c3cc(OC)ncn3)CCC[C@]2(C(=O)O)C1	-10.9%
COc1cc(N2CCC[C@]3(C(=O)O)CN(C(C)C)C[C@@H]3C2)ncn1	-3.84%
O=C(c1c[nH]cn1)N1CCC(F)(F)C2(CCN(c3cccc(F)c3)C2)C1 (stereo unspecified)	-7.39%
COCCN1CCC12CCN(c1ncccn1)C2 (stereo unspecified)	-5.32%

SMILES	cytotoxicity at 70.5 h
CC(=O)N1CCCC1c1nnn2cc(-c3ccncc3)ccc12 (stereo unspecified)	-5.32%
CC(=O)N1CCCC1c1nnn2cc(Nc3ccccc3)ccc12 (stereo unspecified)	-5.52%
Cc1ccc(N2C[C@H]3CCC[C@@H](CN4CCOCC4)[C@H]3C2)nn1	-1.56%
Cc1ccc(N2C[C@H]3CCC[C@@H](CN(C)C)[C@H]3C2)nn1	-0.102%
Cc1occc1C(=O)N1C[C@@H](OCc2cccnc2)[C@H]2OCCC[C@@H]21	-21.3%
Cc1cccc(CN2CC[C@@H]3[C@@H]2CCN3C(=O)c2cc(C)on2)n1	-12.4%
COc1ccc(CN2C[C@@H]3COC[C@@H](CC(=O)N4CCCC4)[C@@H]3C2)cc1	-19.9%
Cc1ncsc1CN1C[C@@H]2COC[C@]2(CNC(=O)c2ccccc2)C1	-7.33%
Cn1cc(CN2C[C@@H]3COC[C@]3(CNC(=O)c3ccccc3)C2)cn1	-13.5%
Cc1ccc(CN2C[C@@H]3COC[C@@H](CC(=O)N4CCOCC4)[C@@H]3C2)s1	-11%
COC1COC2(CCN(Cc3ccccc3F)CC2)C1 (stereo unspecified)	-8.4%
O=C(C[C@@H]1COC[C@H]2CN(Cc3ccccc3)C[C@@H]12)N1CCCC1	-14.4%
CN(C)C(=O)C1OC2(CCN(c3ncc(F)cn3)CC2)c2ccccc21 (stereo unspecified)	3.5%
CS(=O)(=O)N1CCC2(CC1)COC(COc1ccccn1)C2 (stereo unspecified)	-12.3%
COC[C@@H]1CCC[C@]12CN(CCc1ccccc1)CCO2	-12.8%
Cn1cc(N2CC3(CCN(CC4CCC4)CC3)OCC2=O)cn1	-7.64%
Cn1cc(N2CC3(CCN(Cc4nccs4)CC3)OCC2=O)cn1	39.5%
CCS(=O)(=O)N1CCOCC2(CCN(c3ccccn3)C2)C1 (stereo unspecified)	-11.4%
CS(=O)(=O)N1CCOCC2(CCN(c3ccccn3)C2)C1 (stereo unspecified)	-10.4%
CN1CCC2(COCCN(Cc3ccc4c(c3)OCO4)C2)C1 (stereo unspecified)	13.5%
Cc1noc(C)c1CN1CCc2ncc(CN(C)C)n2CC1	-8.78%
O=C(O)c1cc2c(nc1N1CCCC1)CCN(C1CCOCC1)CC2	12%

SMILES	cytotoxicity at 70.5 h
c1cnc2c(c1)CN(C1CCOC1)CCN2CC1CC1 (stereo unspecified)	-8.62%
O=C(O)c1cc2c(nc1NCC1CC1)CCN(C1CCOC1)CC2 (stereo unspecified)	-4.26%
O=C(N1CCCO1)[C@]12COC[C@H]1CN(Cc1cccnc1)C2	-7.03%
Cn1nccc1-c1ncc2c(c1C(=O)O)CCN(Cc1cccnc1)C2	-2.63%
COCCN1CCCC12CCN(Cc1cncn1C)CC2	-1.01%
COc1ccc(CN2C[C@H]3CCC[C@@H](CN(C)C)[C@H]3C2)cn1	-2.35%
CO[C@H]1CCN(S(=O)(=O)N(C)C)[C@@H]2CN(Cc3cccnc3)C[C@H]12	-5.31%
CCS(=O)(=O)N1CC[C@H](OC)[C@H]2CN(Cc3ccncc3)C[C@H]21	-3.99%
Cc1noc(C)c1CN1C[C@@H](OCc2ccccn2)[C@H]2OCCC[C@H]21	-16.3%
CC(C)CN1CCC(c2nc3ccc(NC(C)C)cn3n2)CC1	-13.1%
c1coc(CN2C[C@@H]3OCCN(CCN4CCCC4)[C@@H]3C2)c1	-7.43%
Fc1ccccc1CN1C[C@@H]2CN(Cc3cccnc3)CCO[C@@H]2C1	-11.8%
COc1ccccc1CN1C[C@@H]2CN(Cc3cccnc3)CCO[C@@H]2C1	12.8%
Fc1ccc(CN2C[C@@H]3OCCN(CCN4CCCC4)[C@@H]3C2)cc1	-6.53%
Cc1nc(CN2CCN(C3CCOC3)Cc3cccnc32)cs1 (stereo unspecified)	-0.337%
O=C(O)c1cc2c(nc1-c1ccncc1)CCN(C1CCOC1)CC2 (stereo unspecified)	-4.07%
Cn1nccc1-c1ncc2c(c1C(=O)O)CCN(Cc1ccccc1)C2	11.6%
Cn1ccnc1CN1C[C@H](N2CCOCC2)[C@@H]2OCCC[C@@H]21	-3.14%
